One assay deals with E. coli (ATCC 25922). It is filed as cell-based, Escherichia coli. As for the experimental part:
(§1) The antibacterial activities of the different peptides were determined by continuous monitoring of bacterial growth with a Bioscreen C microbiology reader (Labsystems Oy, Helsinki, Finland). The test was performed in 100-well flat-bottomed honeycomb plates, in which 50 μl of test fractions were incubated with 50 μl of a suspension of an actively growing culture of bacteria diluted in Mueller Hinton medium to a starting concentration of 3×10^4 cells per ml. […] [NT] 13032) and S. aureus (ATCC 9144), were chosen as test bacteria. […] Polymyxin B (Sigma, St.

In the next assay the test system is Pseudomonas aeruginosa. It is filed as cell-based. The procedure: as §1
In the next assay the test system is S. aureus (ATCC 9144). It is filed as cell-based, Staphylococcus aureus. The settings on record: ATCC 9144. As for the experimental part: as §1
In the next assay the test system is Botrytis cinerea 101. The following applies: 48 h. As for the experimental part:
(§2) The various derivates of P17 (brominated and non-brominated) were tested for their ability to inhibit fungal growth of the yeast strains Saccaharomyces cerevisiae sp, Candida albicans (ATCC 10231) and Rodotorula sp., and the filamentous strains Botrytis cinerea 101, Penicillium rogveforti, and Fusarium sp. All strains, except C. albicans, were a gift from Prof. A. Tronsmo (The Norwegian University of Life Sciences, Ås, Norway). The fungi were cultivated on potato dextrose agar, supplemented with 2% glucose, at room temperature. Before antifungal testing, the fungi were dissolved in potato dextrose broth (Difco) at half-strength. Cell concentration was determined and adjusted after counting in a Bürker chamber. The filamentous fungi were filtered through a piece of cotton before counting. An aliquot of 50 μl of fungal spores (final concentration 2×10^5 spores per ml) were inoculated in microtiter plates (96 wells) along with 50 μl peptide solution. Peptides, dissolved in distilled water, were tested at final concentrations (two-fold dilutions) ranging from 50 μM to 0.1 μM. Cultures were grown in the dark (without shaking) and with a moist chamber at 25° C. (37° C. for C. albicans). Growth inhibition was determined microscopically after 48 h of incubation. MIC was determined as the lowest concentration of peptide resulting in 50% inhibition of visible growth.

For assay [1], the system named is Candida albicans (ATCC 10231). The following applies: ATCC 10231, 48 h. As for the experimental part:
as §2

Another assay concerns Saccharomyces cerevisiae. The settings on record: 48 h. The procedure: as §2
The test system of assay [2] is Salmonella enterica serovar typhimurium (ATCC 14028). The assay can be described thus: Bacterial cell viability, lux luminescence and OD600, with or without LPS. It is filed as cell-based. The following applies: co-incubation with 2.5 μM Aeromonas salmonicida LPS. An excerpt: To evaluate the effect of antimicrobial peptides on the viability of bacteria in a fast and reliable manner we used the lux CDABE operon from Photorhabdus luminescens as a reporter system in gram negative test bacteria and the modified luxABCDE operon in S. aureus (Vesterlund et al. 2004). Bacterial bioluminescence is directly dependent on metabolic activity, since reduction equivalents are needed to drive light emission. Any form of interruption of bacterial cell integrity or metabolism will therefore be detected as a reduction in light emission.
For the assay we used S. aureus (RN4220), E. coli K-12 and Salmonella enterica serovar typhimurium (ATCC 14028) transformed with the respective lux-operon containing plasmids (Vesterlund et al. 2004).
For each experiment a fresh colony was picked from Luria-Bertani plates supplemented with 10 μg/ml of erythromycin in case of S. aureus and with 100 μg/ml of ampicillin in case of E. coli and S. enterica serovar Typhimurium. Each colony was suspended in 5 ml of Müller-Hinton medium with appropriate antibiotics. The culture was incubated over night at 37° C. in a shaking incubator. The next morning 0.5 ml of this culture was transferred to 30 ml fresh MH medium in an Erlenmeyer-flask supplemented with the respective antibiotic. The flask was incubated (200 rpm shaking; 37° C.) until an OD600 of 0.5-0.8 was reached. The culture was then diluted to an OD600 of about 0.02-0.03 before transfer to the 96 well opaque plates with optical bottom (Packard ViewPlate) used for the assay.
The synthesized peptides were dissolved in water and aliquots frozen at −18° C. until use. Twofold dilutions of test peptides (final concentrations ranging from 0.31 to 80 μM) were directly prepared in 96 well microtiter plates in a volume of 10 μl in water. 90 μl is of indicator bacteria in MH medium were added directly to the prepared and pre-warmed (30 minutes at 37° C.) plate before starting the measurement in a Victor multiplate reader (Perkin Elmer) at 37° C. Both OD600 and luminescence in counts per second (cps) were followed over 5 hours in measuring intervals of 5 minutes. The plates where shaken before each measurement (20 sec.; 5 mm orbital shaking; 10 sec waiting). The growth curves and light emission curves were drawn and evaluated to determine the MIC for each indicator strain. The MIC was defined as the concentration of test compound causing more than 50% reduction in bioluminescence (cps) or optical density (OD600) after 5 hours, compared to the growth control. Cecropin P1 was used as positive control. The results (table 14a-b) confirm the results obtained in example 2, showing a pronounced antibacterial effect of the longest peptide fragments. […] The partial peptides P17 HC (1-20), both bromated and unbromated, inhibit growth only in higher concentrations.
A second plate with an otherwise similar setup (as described for the luminescence assay in example 3) was prepared, but with addition of Aeromonas salmonicida LPS to the peptide dilutions before pre-warming. The LPS end concentration in each well was approximately 2.5 μM.

For assay [3], the system named is C. glutamicum (ATCC 13032). The class given is cell-based, Corynebacterium glutamicum. As for the experimental part: as §1

Values after ≈ are worked out from the molar mass of the structure shown. Residues, ends and D or L forms follow the SMILES beside them. No end group written: not given here.

For the molecule `NCCCC[C@H](NC(=O)[C@H](CCCCN)NC(=O)[C@H](Cc1ccccc1)NC(=O)C(Cc1c[nH]c2ccc(Br)cc12)NC(=O)CN)C(=O)O` (some centres unmarked) [P17 HC-Br (1-5)] (HELM PEPTIDE1{G.[O=C(C(Cc1c[nH]c2ccc(Br)cc12)N[*:1])[*:2]].F.K.K}$$$$V2.0; N-terminus and C-terminus assumed), in the assay with E. coli (ATCC 25922), the “Minimal inhibitory concentration, E. coli” value turned out to be 25 µM (≈ 18.6 µg/mL). Moreover, the “Minimal inhibitory concentration, P. aeruginosa” value in the assay on Pseudomonas aeruginosa was above 50 µM. In addition, the “Minimal inhibitory concentration, S. aureus” value in the assay with S. aureus (ATCC 9144) is above 100 µM. Further, the “Minimal inhibitory concentration (MIC), Botrytis cinerea” value in the assay on Botrytis cinerea 101 was above 100 µM. The “Minimal inhibitory concentration (MIC), Candida albicans” value in assay [1] is above 100 µM. Besides, the “Minimal inhibitory concentration (MIC), Saccharomyces cerevisiae” value in the assay with Saccharomyces cerevisiae was above 100 µM.

With `CC(C)[C@H](NC(=O)[C@H](CCCCN)NC(=O)[C@H](Cc1c[nH]cn1)NC(=O)[C@H](Cc1ccccc1)NC(=O)[C@@H](NC(=O)[C@H](CCCCN)NC(=O)[C@H](CCCCN)NC(=O)[C@H](Cc1ccccc1)NC(=O)C(Cc1c[nH]c2ccc(Br)cc12)NC(=O)CN)[C@@H](C)O)C(=O)O` (some centres unmarked) [P17 HC-Br (1-10)] (HELM PEPTIDE1{G.[O=C(C(Cc1c[nH]c2ccc(Br)cc12)N[*:1])[*:2]].F.K.K.T.F.H.K.V}$$$$V2.0; N-terminus and C-terminus assumed), the “Minimal inhibitory concentration, E. coli” value in the assay with E. coli (ATCC 25922) is 25 µM (≈ 33.9 µg/mL). Moreover, the “Minimal inhibitory concentration, P. aeruginosa” value in the assay with Pseudomonas aeruginosa was above 50 µM. In addition, the “Minimal inhibitory concentration, S. aureus” value with S. aureus (ATCC 9144) was above 100 µM. Besides, in the assay with Botrytis cinerea 101, the “Minimal inhibitory concentration (MIC), Botrytis cinerea” value worked out at 50 µM (≈ 67.8 µg/mL). Besides, the “Minimal inhibitory concentration (MIC), Candida albicans” value in assay [1] was determined as 25 µM (≈ 33.9 µg/mL). Besides, the “Minimal inhibitory concentration (MIC), Saccharomyces cerevisiae” value in the assay with Saccharomyces cerevisiae was found to be 25 µM (≈ 33.9 µg/mL). The “MIC, more than 50% reduction in optical density, S. enterica, P + LPS” value in assay [2] (OD600, 5 hours) was 40 µM. Further, the “MIC, more than 50% reduction in luminescence, S. enterica, P + LPS” value in assay [2] (luminescence (cps), 5 hours) amounted to 20 µM.

As to GQRGCSALGF [P17 HC (21-30)], the “Minimal inhibitory concentration, E. coli” value in the assay with E. coli (ATCC 25922) is above 100 µM. Also, in the assay with Pseudomonas aeruginosa, the “Minimal inhibitory concentration, P. aeruginosa” value is above 100 µM. For the same molecule, the “Minimal inhibitory concentration, C. glutamicum” value in assay [3] is above 100 µM. For the same molecule, the “Minimal inhibitory concentration, S. aureus” value with S. aureus (ATCC 9144) was above 100 µM. In the assay with Botrytis cinerea 101, the “Minimal inhibitory concentration (MIC), Botrytis cinerea” value was above 100 µM. In addition, the “Minimal inhibitory concentration (MIC), Candida albicans” value in assay [1] was above 100 µM. Besides, in the assay with Saccharomyces cerevisiae, the “Minimal inhibitory concentration (MIC), Saccharomyces cerevisiae” value was above 100 µM.

As for GWFKK [P17 HC (1-5)], the “Minimal inhibitory concentration, E. coli” value in the assay on E. coli (ATCC 25922) was above 100 µM. The “Minimal inhibitory concentration, P. aeruginosa” value with Pseudomonas aeruginosa is above 100 µM. In assay [3], the “Minimal inhibitory concentration, C. glutamicum” value was above 100 µM. For the same molecule, in the assay on S. aureus (ATCC 9144), the “Minimal inhibitory concentration, S. aureus” value was above 100 µM. The “Minimal inhibitory concentration (MIC), Botrytis cinerea” value in the assay with Botrytis cinerea 101 was above 100 µM. Further, the “Minimal inhibitory concentration (MIC), Candida albicans” value in assay [1] was above 100 µM. Besides, the “Minimal inhibitory concentration (MIC), Saccharomyces cerevisiae” value in the assay with Saccharomyces cerevisiae is above 100 µM.

Consider GWFKKTFHKV [P17 HC (1-10)], for which, in the assay with E. coli (ATCC 25922), the “Minimal inhibitory concentration, E. coli” value was 100 µM. Besides, in the assay with Pseudomonas aeruginosa, the “Minimal inhibitory concentration, P. aeruginosa” value is 100 µM. Besides, the “Minimal inhibitory concentration, C. glutamicum” value in assay [3] was found to be 12.5 µM. Also, the “Minimal inhibitory concentration, S. aureus” value with S. aureus (ATCC 9144) is above 100 µM. Further, the “Minimal inhibitory concentration (MIC), Botrytis cinerea” value in the assay on Botrytis cinerea 101 was 100 µM. Moreover, the “Minimal inhibitory concentration (MIC), Candida albicans” value in assay [1] came out at 25 µM. Besides, the “Minimal inhibitory concentration (MIC), Saccharomyces cerevisiae” value in the assay with Saccharomyces cerevisiae was 25 µM.

These data come from patent US20100093642A1, “NOVEL POLYPEPTIDES” (priority 2006, published 2010).
